The text below walks through data of ChEMBL document CHEMBL1144278, “A new bactericidal lead structure for the protection of materials” (Bioorg Med Chem Lett, 2005).

Each structure is given as a SMILES string. ≈ marks a conversion by molar mass, not a printed value.

Data set [1] deals with Pseudomonas aeruginosa. Kind of data set: Minimum inhibitory concentration against Pseudomonas aeruginosa NCIB 6749 was determined in chem. def. medium. Type of data set: functional.
In data set [2] the test system is Pseudomonas aeruginosa. Kind of data set: Minimum inhibitory concentration against Pseudomonas aeruginosa NCIB 6749 was determined in complex medium. Format: functional.
Data set [3] in a line: Half life period was determined. Type of data set: ADME. Particulars: pH 9, 50 °C.
The test system of a further data set is Bacteria. Kind of data set: Minimum inhibitory concentration against Corynebacterium was determined in agar medium. Type of data set: functional.
In a further data set the test system is Bacillus subtilis. In words: Minimum inhibitory concentration against Bacillus subtilis. Type of data set: functional.
The subject of data set [4] is Pseudomonas aeruginosa. Kind of data set: Minimum inhibitory concentration against Pseudomonas aeruginosa ATCC 15442 was determined in agar medium. Format: functional.
For data set [5], the system named is Pseudomonas aeruginosa. Kind of data set: Minimum inhibitory concentration against Pseudomonas aeruginosa NCIB 12201 was determined in agar medium. Type of data set: functional.
In a further data set the test system is Alcaligenes faecalis. In words: Minimum inhibitory concentration against Alcaligenes faecalis was determined in agar medium. Format: functional.
Data set [6] has as its system Pseudomonas aeruginosa. In words: Minimum inhibitory concentration against Pseudomonas aeruginosa NCIB 6749 was determined in agar medium. Type of data set: functional.
Data set [7] is described as follows: Lethal dose in rat. Particulars: in vivo. Type of data set: toxicity.
A short description of data set [8]: Half life periof was determined. Type of data set: ADME.

By MIC is commonly meant the lowest concentration found to suppress growth. The low end stands for greater potency, the high end for weaker potency. What is called half-life is the time needed for the level to fall by half in the phase considered. Read a low half-life as rapid decline. Broadly, the LD50 is the dose expected to kill half of the subjects tested. Low values mean a more toxic substance, high ones a less toxic substance.

Turning to `O=C(OCC(Cl)(Cl)Cl)N(C(=O)OCC(Cl)(Cl)Cl)c1onc2c1CCC2`, the MIC against Pseudomonas aeruginosa [1] was found to be 10 µg/mL (≈ 21.1 µM); against Pseudomonas aeruginosa [2], 5 µg/mL (≈ 10.5 µM).
In [3], `O=C(Nc1onc2c1CCC2)C(F)(F)F` had a half-life of 105 h.
`CC(C)COC(=O)N(C(=O)OCC(C)C)c1onc2c1CCC2`: the MIC against Pseudomonas aeruginosa [1] is 10 µg/mL (≈ 30.8 µM); in the data set with Pseudomonas aeruginosa [2] it was 5 µg/mL (≈ 15.4 µM).
In data set [3], `CCCC(=O)N(C(=O)CCC)c1onc2c1CCC2` gave a half-life of 6 h.
`O=C(OCCCl)N(C(=O)OCCCl)c1onc2c1CCC2`: the MIC worked out at 10 µg/mL (≈ 29.7 µM) against Pseudomonas aeruginosa [1] and 5 µg/mL (≈ 14.8 µM) with Pseudomonas aeruginosa [2].
In the case of `O=C(OCCBr)N(C(=O)OCCBr)c1onc2c1CCC2`, the MIC came out at 10 µg/mL (≈ 23.5 µM) against Pseudomonas aeruginosa [1] and 5 µg/mL (≈ 11.7 µM) with Pseudomonas aeruginosa [2].
For `C=C(C)OC(=O)N(C(=O)OC(=C)C)c1onc2c1CCC2` the same measures were 10 µg/mL (≈ 34.2 µM) and 10 µg/mL (≈ 34.2 µM).
For `CCCCOC(=O)N(C(=O)OCCCC)c1onc2c1CCC2` the same measures were 10 µg/mL (≈ 30.8 µM) and 10 µg/mL (≈ 30.8 µM).
`Nc1onc2c1CCC2`: the MIC with Bacteria is below 1 µg/mL; in the data set with Bacillus subtilis, 5 µg/mL (≈ 40.3 µM); in the data set with Pseudomonas aeruginosa [4], 5 µg/mL (≈ 40.3 µM); against Pseudomonas aeruginosa [5], 7.5 µg/mL (≈ 60.4 µM); with Alcaligenes faecalis, below 1 µg/mL; in the data set on Pseudomonas aeruginosa [6], below 1 µg/mL. For the same compound, the median lethal dose (LD50) in data set [7] was below 300 mg/kg. The same compound had a half-life in data set [8] of 97 h.
